Assay type in all cases: biochemical
One test has as its target T1, Cathepsin S (Homo sapiens, UniProt P25774).
T1 construct: purchased Biovision K149-100
Kind of test: IC50 determination against Cathepsin S (Biovision kit K149-100). As to conditions: CTSS. As for the experimental part: (§1) 2. Method for determining IC50 of compounds against cathepsin:
IC50 of compounds against Cathepsin S was determined by using Cathepsin S Inhibitor Screening Kit (Product No. K149-100) from Biovision Company.
2.1.1.4 Preparation of Cathepsin S solution: Cathepsin S enzyme (46 μl) was added to Cathepsin S buffer (2254 μl), and mixed well, to prepare Cathepsin S enzyme solution with a volume of 2.3 ml, which was placed on ice for further use.
(§2) 2.1.2 Preparation of compound solutions: 30 mM and 10 mM compound stock solutions, and control compounds were gradiently diluted in DMSO at a ratio of 1:3, wherein the maximum dilution fold was 19683; the gradiently diluted compound solution (3 μl) was added to Cathepsin K, B, L, and S buffer (27 μl), respectively, and mixed well, wherein the control compounds (FF-FMK, F-F-FMK, FF-FMK and Z-FF-FMK) were at the concentrations of 66.67, 22.22, 7.41, 2.47, 0.82, 0.27, 0.091, 0.03, 0.01, 0.0034 and 0 μM, respectively, the test compounds were at the concentrations of 1000, 333.3, 111.1, 37, 12.3, 4.1, 1.4, 0.46, 0.15, 0.05 and 0 μM, respectively, and the final concentration of DMSO was 10%.
2.1.3.4 Cathepsin S: Cathepsin S substrate (90 μl) was added to Cathepsin S buffer (1710 μl), and mixed well, to prepare Cathepsin S substrate solution with a volume of 1.8 ml, which was placed on ice for further use.
(§3) Method for screening cathepsin inhibitors: the cathepsin solution (prepared in Item 2.1.1) was added to a 384-well plate (ProxiPlate-384 Plus, Perkinelmer) at 10 μl/well, and centrifuged at 1000 rpm for Imin; the compound solution (prepared in Item 2.1.2) was then added at 2 μl/well, and every concentration was repeated in two wells; the final concentrations of the test compounds were 100, 33.3, 11.1, 3.7, 1.23, 0.41, 0.14, 0.046, 0.015, 0.005 and 0 μM, respectively, wherein the final concentration of DMSO was 1%; after centrifugation at 1000 rpm for 1 min, the plate was put in a 25° C. incubator for 15 min; the cathepsin substrate solution was then added at 8 µl/well, and centrifuged at 1000 rpm for 1 min; and finally, the fluorescence signal was read in Enspire, wherein the exciting light was at a wavelength of 400 nm, the emitting light was at a wavelength of 505 nm, and continuous reading was performed at 37° C. for 120 min.
(§4) Data analysis: the slope (S) for all the samples was calculated by ΔRFU(RFU2−RFU1) and time ΔT(T2−T1), including negative control (Enzyme Control, EC) and positive control (Inhibitor Control, IC: 10 μM (FF-FMK, F-F-FMK, FF-FMK and Z-FF-FMK), and the calculation formula was as followed: Relative inhibition rate %=(SEC−SS)/(SEC−SIC)*100. The IC50 for each compound was obtained by means of fitting by software GraphPad Prism 5.0.

In another test the target is T2, Cathepsin B (Homo sapiens, UniProt P07858).
T2 construct: purchased Biovision K147-100
The test is described as follows: IC50 determination against Cathepsin B (Biovision kit K147-100). As to conditions: for Selectiviy vs Cathepsin K (fold): selectivity for Cathepsin B over Cathepsin K; for Selectiviy vs Cathepsin L (fold): selectivity for Cathepsin B over Cathepsin L; for Selectiviy vs Cathepsin S (fold): selectivity for Cathepsin B over Cathepsin S; for selectivity for Cathepsin B: statement in words, versus Cathepsin K, L, S. As for the experimental part: as §1
IC50 of compounds against Cathepsin B was determined by using Cathepsin B Inhibitor Screening Kit (Product No. K147-100) from Biovision Company;
2.1.1.2 Preparation of Cathepsin B solution: Cathepsin B enzyme (23 μl) and Cathepsin B reagent (46 μl) were added to Cathepsin B buffer (2231 μl), and mixed well, to prepare Cathepsin B enzyme solution with a volume of 2.3 ml, which was placed on ice for further use.
as §2
2.1.3.2 Cathepsin B: Cathepsin B substrate (90 μl) was added to Cathepsin B buffer (1710 μl), and mixed well, to prepare Cathepsin B substrate solution with a volume of 1.8 ml, which was placed on ice for further use.
as §3, §4

In the next test the target is T3, Cathepsin K (Homo sapiens, UniProt P43235).
T3 construct: purchased Biovision K150-100
T3 sequence (P43235 115-329): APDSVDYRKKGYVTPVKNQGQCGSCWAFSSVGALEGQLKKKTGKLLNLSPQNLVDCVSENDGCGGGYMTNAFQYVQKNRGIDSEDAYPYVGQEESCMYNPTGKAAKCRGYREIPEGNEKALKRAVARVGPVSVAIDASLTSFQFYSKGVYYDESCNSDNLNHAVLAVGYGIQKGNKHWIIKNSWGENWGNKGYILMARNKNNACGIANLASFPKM
The test is described as follows: IC50 determination against Cathepsin K (Biovision kit K150-100). The note with it: CTSK. As for the experimental part:
as §1
IC50 of compounds against Cathepsin K was determined by using Cathepsin K Inhibitor Screening Kit (Product No. K150-100) from Biovision Company;
2.1.1.1 Preparation of Cathepsin K solution: Cathepsin K enzyme (23 μl) and Cathepsin K reagent (46 μl) were added to Cathepsin K buffer (2231 μl), and mixed well, to prepare Cathepsin K enzyme solution with a volume of 2.3 ml, which was placed on ice for further use.
as §2
2.1.3.1 Cathepsin K: Cathepsin K substrate (90 μl) was added to Cathepsin K buffer (1710 μl), and mixed well, to prepare Cathepsin K substrate solution with a volume of 1.8 ml, which was placed on ice for further use.
as §3, §4

Setting [1] is: Exp-1, read-out: IC50 (nM) Exp-1.
The mark [2] stands for this setting: Exp-2, read-out: IC50 (nM) Exp-2.
Where [3] appears, read: average of Exp-1 and Exp-2, read-out: Ave of IC50.
Setting [4] is: CTSB, Exp-1, read-out: IC50 (nM) Exp-1.
The mark [5] stands for this setting: CTSB, Exp-2, read-out: IC50 (nM) Exp-2.
The mark [6] stands for this setting: CTSB, average of Exp-1 and Exp-2, read-out: Ave of IC50.
Where [7] appears, read: Table 3, average ± STDEV, read-out: Cathepsin B IC50.

Read-outs that look alike come from different tables or passages of the source.

T1 sequence (P25774 115-331): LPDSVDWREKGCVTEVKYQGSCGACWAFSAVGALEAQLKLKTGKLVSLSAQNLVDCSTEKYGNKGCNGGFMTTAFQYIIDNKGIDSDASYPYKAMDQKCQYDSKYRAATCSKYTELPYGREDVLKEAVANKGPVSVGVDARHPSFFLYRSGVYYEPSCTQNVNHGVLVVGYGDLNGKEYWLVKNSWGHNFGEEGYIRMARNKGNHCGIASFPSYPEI

For the compound `CCOC(=O)[C@H]1O[C@@H]1C(=O)N[C@@H](CCSC)C(=O)NCCCc1ccccc1` [Compound 8, (2s, 3s)-2-ethoxycarbonyl-3-[2-[(s)-4-methylthio-1-carbonyl-1-(3-phenylpropylamino)butane]formylamino]epoxysuccinic acid], the IC50 is 10600 nM at Cathepsin S (setting [1]); 9450 nM at Cathepsin S (setting [2]); 10000 nM at Cathepsin S (setting [3]); 17.6 nM at Cathepsin B (setting [4]); 20.7 nM on Cathepsin B (setting [5]); 19.2 nM at Cathepsin B (setting [6]). In addition, the IC50 was found to be 19.2 ± 2.26 nM on Cathepsin B (setting [7]), 2950 nM on Cathepsin K (setting [1]), 1500 nM at Cathepsin K (setting [2]) and 2220 nM at Cathepsin K (setting [3]). For the same compound, at Cathepsin B, the “Selectiviy vs Cathepsin K (fold)” value was determined as 116 fold. For the same compound, the “Selectiviy vs Cathepsin L (fold)” value on Cathepsin B was found to be 210 fold. For the same compound, on Cathepsin B, the “Selectiviy vs Cathepsin S (fold)” value was 524 fold. The “selectivity for Cathepsin B” value at Cathepsin B is given as “strong selectivity for Cathepsin B”.
In the case of `CCOC(=O)[C@H]1O[C@@H]1C(=O)N[C@@H](CCSC)C(=O)NC(CC)CC` [Compound 39, (2s, 3s)-2-ethoxycarbonyl-3-[2-[(s)-4-methylthio-1-carbonyl-1-(1-ethylpropylamino)butane]formylamino]epoxysuccinic acid], the IC50 at Cathepsin S (setting [1]) is 5110 nM; at Cathepsin S (setting [2]), 8750 nM; at Cathepsin S (setting [3]), 6930 nM; on Cathepsin B (setting [4]), 68.5 nM; on Cathepsin B (setting [5]) it was 80 nM; on Cathepsin B (setting [6]), 74.3 nM. The IC50 at Cathepsin B (setting [7]) came to 74.3 ± 8.18 nM; at Cathepsin K (setting [1]) it was 1680 nM; at Cathepsin K (setting [2]), 1610 nM; at Cathepsin K (setting [3]), 1650 nM. Moreover, the “Selectiviy vs Cathepsin K (fold)” value at Cathepsin B amounted to 22 fold. Also, the “Selectiviy vs Cathepsin L (fold)” value on Cathepsin B worked out at 129 fold. Further, the “Selectiviy vs Cathepsin S (fold)” value at Cathepsin B is 193 fold. The “selectivity for Cathepsin B” value on Cathepsin B was “strong selectivity for Cathepsin B”.
For the compound `CCOC(=O)[C@H]1O[C@@H]1C(=O)N[C@@H](CCSC)C(=O)NCCc1cccc(F)c1` [Compound 34, (2s, 3s)-2-ethoxycarbonyl-3-[2-[(s)-4-methylthio-1-carbonyl-1-(3-fluorophenylethylamino)butane]formylamino]epoxysuccinic acid], the IC50 turned out to be 1600 nM at Cathepsin S (setting [1]); 1660 nM on Cathepsin S (setting [2]); 1630 nM on Cathepsin S (setting [3]); 22.3 nM at Cathepsin B (setting [4]); 25.9 nM on Cathepsin B (setting [5]); 24.1 nM on Cathepsin B (setting [6]). In addition, the IC50 at Cathepsin B (setting [7]) amounted to 24.1 ± 2.59 nM; on Cathepsin K (setting [1]), 586 nM; at Cathepsin K (setting [2]) it was 448 nM; on Cathepsin K (setting [3]) it was 517 nM. The “Selectiviy vs Cathepsin K (fold)” value on Cathepsin B is recorded as 21 fold. In addition, the “Selectiviy vs Cathepsin S (fold)” value on Cathepsin B stood at 167 fold. At Cathepsin B, the “selectivity for Cathepsin B” value is recorded as “strong selectivity for Cathepsin B”.
Regarding `CCOC(=O)[C@H]1O[C@@H]1C(=O)N[C@@H](CCSC)C(=O)NCCCCc1ccccc1` [Compound 40, (2s, 3s)-2-ethoxycarbonyl-3-[2-[(s)-4-methylthio-1-carbonyl-1-(4-phenylbutylamino)butane]formylamino]epoxysuccinic acid], the 50% inhibitory concentration (IC50) on Cathepsin S (setting [1]) is 834 nM; on Cathepsin S (setting [2]), 1510 nM; at Cathepsin S (setting [3]), 1170 nM; at Cathepsin B (setting [4]) it was 20.3 nM; on Cathepsin B (setting [5]), 27.1 nM; at Cathepsin B (setting [6]), 23.7 nM. Further, the concentration for half-maximal inhibition (IC50) on Cathepsin B (setting [7]) is 23.7 ± 4.78 nM; at Cathepsin K (setting [1]), 704 nM; on Cathepsin K (setting [2]), 606 nM; on Cathepsin K (setting [3]) it was 655 nM. Besides, the “Selectiviy vs Cathepsin K (fold)” value at Cathepsin B is 28 fold. For the same compound, the “Selectiviy vs Cathepsin L (fold)” value at Cathepsin B was determined as 185 fold. Moreover, the “Selectiviy vs Cathepsin S (fold)” value at Cathepsin B is given as 149 fold. On Cathepsin B, the “selectivity for Cathepsin B” value is given as “strong selectivity for Cathepsin B”.
For `CCOC(=O)[C@H]1O[C@@H]1C(=O)N[C@@H](CCSC)C(=O)N1CCC(c2ccccc2)CC1` [Compound 13, (2s, 3s)-2-ethoxycarbonyl-3-[2-[(s)-4-methylthio-1-carbonyl-1-(phenylpiperidinyl)butane]formylamino]epoxysuccinic acid], the half-maximal inhibitory concentration (IC50) was 1900 nM on Cathepsin S (setting [1]); 957 nM at Cathepsin S (setting [2]); 1430 nM on Cathepsin S (setting [3]); 3.76 nM on Cathepsin B (setting [4]); 4.64 nM on Cathepsin B (setting [5]); 4.2 nM on Cathepsin B (setting [6]). Further, the half-inhibitory concentration (IC50) at Cathepsin B (setting [7]) was 4.2 ± 0.63 nM; at Cathepsin K (setting [1]), 180 nM; at Cathepsin K (setting [2]), 148 nM; at Cathepsin K (setting [3]) it was 164 nM. Moreover, the “Selectiviy vs Cathepsin K (fold)” value on Cathepsin B came out at 40 fold. Besides, at Cathepsin B, the “Selectiviy vs Cathepsin L (fold)” value was determined as 1563 fold. Moreover, the “Selectiviy vs Cathepsin S (fold)” value on Cathepsin B was found to be 357 fold. Besides, the “selectivity for Cathepsin B” value on Cathepsin B is “strong selectivity for Cathepsin B”.
Consider `CCCCCCNC(=O)[C@H](CCSC)NC(=O)[C@H]1O[C@@H]1C(=O)OCC` [Compound 5, (2s, 3s)-2-ethoxycarbonyl-3-[2-[(s)-4-methylthio-1-carbonyl-1-(hexylamino)butane]formylamino]epoxysuccinic acid], for which the 50% inhibitory concentration (IC50) came to 4080 nM on Cathepsin S (setting [1]); 4140 nM on Cathepsin S (setting [2]); 4110 nM on Cathepsin S (setting [3]); 7.19 nM on Cathepsin B (setting [4]); 9.33 nM on Cathepsin B (setting [5]); 8.27 nM on Cathepsin B (setting [6]). Besides, the 50% inhibitory concentration (IC50) came to 8.27 ± 1.51 nM on Cathepsin B (setting [7]), 1680 nM on Cathepsin K (setting [1]), 1320 nM at Cathepsin K (setting [2]) and 1500 nM on Cathepsin K (setting [3]). Also, on Cathepsin B, the “Selectiviy vs Cathepsin K (fold)” value worked out at 181 fold. At Cathepsin B, the “Selectiviy vs Cathepsin L (fold)” value is 278 fold. The “Selectiviy vs Cathepsin S (fold)” value on Cathepsin B is 497 fold. Moreover, the “selectivity for Cathepsin B” value at Cathepsin B is recorded as “strong selectivity for Cathepsin B”.
Consider `CCOC(=O)[C@H]1O[C@@H]1C(=O)N[C@@H](CC(C)C)C(=O)NCCC(C)C` [zxy-37, E64d, reference compound], for which the half-inhibitory concentration (IC50) at Cathepsin S (setting [1]) is 753 nM; on Cathepsin S (setting [2]), 571 nM; on Cathepsin S (setting [3]), 662 nM; at Cathepsin B (setting [4]), 10.6 nM; on Cathepsin B (setting [5]) it was 13.5 nM; on Cathepsin B (setting [6]), 12 nM. The IC50 on Cathepsin B (setting [7]) was found to be 12 ± 2.03 nM; at Cathepsin K (setting [1]), 488 nM; at Cathepsin K (setting [2]), 465 nM; at Cathepsin K (setting [3]), 477 nM. Besides, the “Selectiviy vs Cathepsin K (fold)” value on Cathepsin B worked out at 39 fold. Further, the “Selectiviy vs Cathepsin L (fold)” value on Cathepsin B is given as 15 fold. Also, at Cathepsin B, the “Selectiviy vs Cathepsin S (fold)” value is listed as 55 fold.

The IC50 is the concentration needed to halve the response being measured.

The values are drawn from patent US10647690B2, “2,3-epoxy succinyl derivative, preparation method and use thereof” (Institute of Pharmacology and Toxicology Academy of …, priority 2016, dated 2020).
